In patent US20210317134A1, “UBIQUITIN-SPECIFIC-PROCESSING PROTEASE 7 (USP7) MODULATORS AND USES THEREOF” (RAPT THERAPEUTICS, INC., priority 2019, published 2021):
pIC50: −log10 of the molar value.

Biological target: USP7 (Homo sapiens, UniProt Q93009)
Assay: USP7 inhibitory potency (Table 1)
Format: biochemical

Sequence of USP7 (Q93009 whole entry): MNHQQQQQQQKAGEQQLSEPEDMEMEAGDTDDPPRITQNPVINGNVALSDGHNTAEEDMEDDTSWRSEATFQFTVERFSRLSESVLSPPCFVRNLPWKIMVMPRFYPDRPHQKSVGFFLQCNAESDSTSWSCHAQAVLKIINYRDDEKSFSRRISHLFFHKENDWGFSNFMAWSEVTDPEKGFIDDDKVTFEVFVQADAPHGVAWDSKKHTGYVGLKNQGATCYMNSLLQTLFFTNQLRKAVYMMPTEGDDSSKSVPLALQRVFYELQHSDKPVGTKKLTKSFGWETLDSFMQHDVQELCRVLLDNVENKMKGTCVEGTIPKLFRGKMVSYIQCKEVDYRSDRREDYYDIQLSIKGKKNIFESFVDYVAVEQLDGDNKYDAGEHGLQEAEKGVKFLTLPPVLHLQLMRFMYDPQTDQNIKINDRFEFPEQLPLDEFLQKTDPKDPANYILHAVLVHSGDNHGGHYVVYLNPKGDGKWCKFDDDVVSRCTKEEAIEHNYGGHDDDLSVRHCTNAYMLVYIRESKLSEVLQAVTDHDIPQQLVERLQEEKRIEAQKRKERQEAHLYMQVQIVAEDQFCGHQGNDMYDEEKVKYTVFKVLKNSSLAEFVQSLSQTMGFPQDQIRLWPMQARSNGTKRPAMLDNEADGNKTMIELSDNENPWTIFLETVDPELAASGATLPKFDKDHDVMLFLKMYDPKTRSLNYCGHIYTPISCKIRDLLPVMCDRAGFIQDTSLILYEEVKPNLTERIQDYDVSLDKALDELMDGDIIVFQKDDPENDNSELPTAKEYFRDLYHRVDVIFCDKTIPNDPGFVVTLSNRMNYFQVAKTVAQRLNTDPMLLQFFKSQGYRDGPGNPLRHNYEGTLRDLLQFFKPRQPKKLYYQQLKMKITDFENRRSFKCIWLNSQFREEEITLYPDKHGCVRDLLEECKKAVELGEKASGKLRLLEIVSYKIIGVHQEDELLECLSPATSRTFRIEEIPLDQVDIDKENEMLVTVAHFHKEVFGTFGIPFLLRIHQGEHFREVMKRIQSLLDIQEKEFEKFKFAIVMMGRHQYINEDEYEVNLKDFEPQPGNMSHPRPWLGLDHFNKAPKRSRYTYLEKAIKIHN

| SMILES | pIC50 |
| --- | --- |
| O=C(C1Cc2cc(Cl)cc(-c3ccnc(Nc4ccccc4)c3)c2O1)N1CCNCC1 (centres unmarked) [(5-chloro-7-(2-(phenylamino)pyridin-4-yl)-2,3-dihydrobenzofuran-2-yl)(piperazin-1-yl)methanone] | 4.52 to 5.00 |
| N#CCC(O)c1cc2nccc(-c3cc(Cl)cc4c3O[C@@H](C(=O)N3CCNCC3)C4)c2s1 (stereo partly drawn) [3-(7-((R)-5-chloro-2-(piperazine-1-carbonyl)-2,3-dihydrobenzofuran-7-yl)thieno[3,2-b]pyridin-2-yl)-3-hydroxypropanenitrile] | > 6.00 |
| OCc1cc2nccc(-c3cc(Cl)cc4c3OC(c3onc5c3CNCC5)C4)n2n1 (centres unmarked) [(7-(5-chloro-2-(4,5,6,7-tetrahydroisoxazolo[4,3-c]pyridin-3-yl)-2,3-dihydrobenzofuran-7-yl)pyrazolo[1,5-a]pyrimidin-2-yl)methanol] | 5.00 to 6.00 |
| CCC(O)c1cc2ncnc(-c3cc(Cl)cc4c3O[C@@H](c3c5c(nn3C)CCNC5)C4)c2s1 (stereo partly drawn) [1-(4-((R)-5-chloro-2-(2-methyl-4,5,6,7-tetrahydro-2H-pyrazolo[4,3-c]pyridin-3-yl)-2,3-dihydrobenzofuran-7-yl)thieno[3,2-d]pyrimidin-6-yl)propan-1-ol] | > 6.00 |
| CC1CC(=O)N(Cc2cc3nccc(-c4cc(Cl)cc5c4O[C@@H](C(=O)N4CCNCC4)C5)c3s2)C1=O (stereo partly drawn) [1-((7-((R)-5-chloro-2-(piperazine-1-carbonyl)-2,3-dihydrobenzofuran-7-yl)thieno[3,2-b]pyridin-2-yl)methyl)-3-methylpyrrolidine-2,5-dione] | > 6.00 |
| O=C(C1CCNCC1)C1Cc2cc(Cl)cc(-c3ccnc4[nH]ccc34)c2O1 (centres unmarked) [(5-chloro-7-(1H-pyrrolo[2,3-b]pyridin-4-yl)-2,3-dihydrobenzofuran-2-yl)(piperidin-4-yl)methanone] | 5.00 to 6.00 |
| C[C@H](c1cc2nccc(-c3cc(Cl)cc4c3O[C@@H](C(=O)N3CCNCC3)C4)c2s1)N1C(=O)CCC1=O [1-((R)-1-(7-((R)-5-chloro-2-(piperazine-1-carbonyl)-2,3-dihydrobenzofuran-7-yl)thieno[3,2-b]pyridin-2-yl)ethyl)pyrrolidine-2,5-dione] | > 6.00 |
| O=C(C1Cc2cc(Cl)cc(-c3ccnc4[nH]c(Cc5ccccc5)cc34)c2O1)N1CCNCC1 (centres unmarked) [(7-(2-benzyl-1H-pyrrolo[2,3-b]pyridin-4-yl)-5-chloro-2,3-dihydrobenzofuran-2-yl)(piperazin-1-yl)methanone] | 5.00 to 6.00 |
| O=C(C1Cc2cc(Cl)cc(-c3ccnc4cc[nH]c34)c2O1)N1CCNCC1 (centres unmarked) [(5-chloro-7-(1H-pyrrolo[3,2-b]pyridin-7-yl)-2,3-dihydrobenzofuran-2-yl)(piperazin-1-yl)methanone] | 5.00 to 6.00 |
| CCC(O)c1cc2nccc(-c3cc(Cl)cc4c3O[C@@H](c3ocnc3CN3CCCC3)C4)c2s1 (stereo partly drawn) [1-(7-((R)-5-chloro-2-(4-(pyrrolidin-1-ylmethyl)oxazol-5-yl)-2,3-dihydrobenzofuran-7-yl)thieno[3,2-b]pyridin-2-yl)propan-1-ol] | > 6.00 |
| CC(O)c1cc2nccc(-c3cc(Cl)cc4c3O[C@@H](C(=O)N3CCNCC3)C4)c2s1 (stereo partly drawn) [((2R)-5-chloro-7-(2-(1-hydroxyethyl)thieno[3,2-b]pyridin-7-yl)-2,3-dihydrobenzofuran-2-yl)(piperazin-1-yl)methanone] | > 6.00 |
| O=C(C1Cc2cc(Cl)cc(-c3ccnc4[nH]ccc34)c2O1)N1CCC(N2CCCCC2)CC1 (centres unmarked) [1,4′-bipiperidin-1′-yl(5-chloro-7-(1H-pyrrolo[2,3-b]pyridin-4-yl)-2,3-dihydrobenzofuran-2-yl)methanone] | 5.00 to 6.00 |

Second part, the molecule after the results:

| pIC50 | SMILES |
| --- | --- |
| 4.52 to 5.00 | O=C([C@H]1Cc2cc(Cl)cc(-c3ccnc4[nH]ccc34)c2O1)N1CCC(CCO)CC1 [(R)-(5-chloro-7-(1H-pyrrolo[2,3-b]pyridin-4-yl)-2,3-dihydrobenzofuran-2-yl)(4-(2-hydroxyethyl)piperidin-1-yl)methanone] |
| > 6.00 | Cc1cc2nccc(-c3cc(Cl)cc4c3O[C@@H](c3onc5c3CNCC5)C4)c2s1 [(R)-3-(5-chloro-7-(2-methylthieno[3,2-b]pyridin-7-yl)-2,3-dihydrobenzofuran-2-yl)-4,5,6,7-tetrahydroisoxazolo[4,3-c]pyridine] |
| 5.00 to 6.00 | Cn1nc([C@H]2Cc3cc(Cl)cc(-c4ccnc5ccsc45)c3O2)c2c1CCNC2 [(R)-7-(5-chloro-2-(1-methyl-4,5,6,7-tetrahydro-1H-pyrazolo[4,3-c]pyridin-3-yl)-2,3-dihydrobenzofuran-7-yl)thieno[3,2-b]pyridine] |
| 5.00 to 6.00 | FC(F)(F)c1ccc2c(-c3cc(Cl)cc4c3O[C@@H](c3onc5c3CNCC5)C4)ccnc2c1 [(R)-3-(5-chloro-7-(7-(trifluoromethyl)quinolin-4-yl)-2,3-dihydrobenzofuran-2-yl)-4,5,6,7-tetrahydroisoxazolo[4,3-c]pyridine] |
| > 6.00 | O=C([C@H]1Cc2cc(Cl)cc(-c3ncnc4cc(CN5C(=O)CCC5=O)sc34)c2O1)N1CCNCC1 [(R)-1-((4-(5-chloro-2-(piperazine-1-carbonyl)-2,3-dihydrobenzofuran-7-yl)thieno[3,2-d]pyrimidin-6-yl)methyl)pyrrolidine-2,5-dione] |
| 5.00 to 6.00 | CCC1(CC)Cc2nccc(-c3cc(Cl)cc4c3O[C@@H](c3onc5c3CNCC5)C4)c2C1 [(R)-3-(5-chloro-7-(6,6-diethyl-6,7-dihydro-5H-cyclopenta[b]pyridin-4-yl)-2,3-dihydrobenzofuran-2-yl)-4,5,6,7-tetrahydroisoxazolo[4,3-c]pyridine] |
| > 6.00 | CCC(O)c1cc2ncnc(-c3cc(Cl)cc4c3O[C@@H](C(=O)N3CCNCC3)C4)c2s1 (stereo partly drawn) [((2R)-5-chloro-7-(6-(1-hydroxypropyl)thieno[3,2-d]pyrimidin-4-yl)-2,3-dihydrobenzofuran-2-yl)(piperazin-1-yl)methanone] |
| > 6.00 | CN(C)C1CCCN(C(=O)[C@H]2Cc3cc(Cl)cc(-c4ccnc5cc(CO)sc45)c3O2)C1 (stereo partly drawn) [((R)-5-chloro-7-(2-(hydroxymethyl)thieno[3,2-b]pyridin-7-yl)-2,3-dihydrobenzofuran-2-yl)(3-(dimethylamino)piperidin-1-yl)methanone] |
| > 6.00 | CCC(O)c1cc2nccc(-c3cc(Cl)cc4c3O[C@@H](c3onc5c3CNCC5)C4)c2s1 (stereo partly drawn) [drawing 1523, 1-(7-((R)-5-chloro-2-(4,5,6,7-tetrahydroisoxazolo[4,3-c]pyridin-3-yl)-2,3-dihydrobenzofuran-7-yl)thieno[3,2-b]pyridin-2-yl)propan-1-ol] |
| > 6.00 | Clc1cc2c(c(-c3ccnc4ccsc34)c1)O[C@@H](c1onc3c1CNCC3)C2 [(R)-3-(5-chloro-7-(thieno[3,2-b]pyridin-7-yl)-2,3-dihydrobenzofuran-2-yl)-4,5,6,7-tetrahydroisoxazolo[4,3-c]pyridine] |
| > 6.00 | CS(=O)(=O)NCCc1cc2nccc(-c3cc(Cl)cc4c3O[C@@H](C(=O)N3CCNCC3)C4)c2s1 [(R)-N-(2-(7-(5-chloro-2-(piperazine-1-carbonyl)-2,3-dihydrobenzofuran-7-yl)thieno[3,2-b]pyridin-2-yl)ethyl)methanesulfonamide] |
| > 6.00 | COc1ccc2c(-c3cc(Cl)cc4c3O[C@@H](c3onc5c3CNCC5)C4)ccnc2c1 [(R)-3-(5-chloro-7-(7-methoxyquinolin-4-yl)-2,3-dihydrobenzofuran-2-yl)-4,5,6,7-tetrahydroisoxazolo[4,3-c]pyridine] |
| 5.00 to 6.00 | O=C([C@H]1Cc2cc(Cl)cc(-c3ccnc4cc(CO)sc34)c2O1)N1CCn2nc(C(F)(F)F)nc2C1 [(R)-(5-chloro-7-(2-(hydroxymethyl)thieno[3,2-b]pyridin-7-yl)-2,3-dihydrobenzofuran-2-yl)(2-(trifluoromethyl)-5,6-dihydro-[1,2,4]triazolo[1,5-a]pyrazin-7(8H)-yl)methanone] |
| > 6.00 | Clc1cc2c(c(-c3ccnc4c3CC3(COCOC3)C4)c1)O[C@@H](c1onc3c1CNCC3)C2 [(R)-4-(5-chloro-2-(4,5,6,7-tetrahydroisoxazolo[4,3-c]pyridin-3-yl)-2,3-dihydrobenzofuran-7-yl)-5,7-dihydrospiro[cyclopenta[b]pyridine-6,5′-[1,3]dioxane]] |
